# Reference: patent US12077503B2, “Substituted cyclic amides and their use as herbicides” (FMC CORPORATION, priority 2015, dated 2024)
# How the values were obtained:
# Type in all cases: in vivo
# [1] = test system: Kochia (Kochia scoparia); test: Test A postemergence; settings: postemergence, 0 to 100 scale (0 no effect, 100 complete control)
# Procedure, shortened: (§1)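 Visual injury scores from 0, no effect, to 100, complete control, were assigned versus untreated controls roughly 10 d after treatment in the greenhouse. Test chemicals, formulated with surfactant in a non-phytotoxic solvent, were applied to planted seeds as a preemergence soil spray or postemergence to one- to two-leaf plants 2 to 10 cm tall, in loam–sand soil.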
# [2] = test system: ryegrass, Italian (Italian ryegrass, Lolium multiflorum); test: Test A postemergence; settings: postemergence, 0 to 100 scale (0 no effect, 100 complete control)
# Procedure, shortened: as §1
# [3] = test system: corn (Zea mays); test: Test A postemergence; settings: postemergence, 0 to 100 scale (0 no effect, 100 complete control)
# Procedure, shortened: as §1
# [4] = test system: blackgrass (Alopecurus myosuroides); test: Test A postemergence; settings: postemergence, 0 to 100 scale (0 no effect, 100 complete control)
# Procedure, shortened: as §1
# [5] = test system: giant foxtail (Setaria faberii); test: Test A postemergence; settings: postemergence, 0 to 100 scale (0 no effect, 100 complete control)
# Procedure, shortened: as §1
# [6] = test system: pigweed (Amaranthus retroflexus); test: Test A postemergence; settings: postemergence, 0 to 100 scale (0 no effect, 100 complete control)
# Procedure, shortened: as §1
# [7] = test system: Galium (catchweed bedstraw, Galium aparine); test: Test A postemergence; settings: postemergence, 0 to 100 scale (0 no effect, 100 complete control)
# Procedure, shortened: as §1
# [8] = test system: wheat (Triticum aestivum); test: Test A postemergence; settings: postemergence, 0 to 100 scale (0 no effect, 100 complete control)
# Procedure, shortened: as §1
# [9] = test system: barnyardgrass (Echinochloa crus-galli); test: Test A postemergence; settings: postemergence, 0 to 100 scale (0 no effect, 100 complete control)
# Procedure, shortened: as §1
# [10] = test system: ragweed (common ragweed, Ambrosia elatior); test: Test A postemergence; settings: postemergence, 0 to 100 scale (0 no effect, 100 complete control)
# Procedure, shortened: as §1
# [11] = test system: rice (Oryra sativa); test: Test B flooded paddy test; settings: Flood, 250 g ai/ha; 0 to 100 scale where 0 is no effect and 100 is complete control; 13 to 15 d
# Procedure, shortened: (§2)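 Response scored visually against untreated controls, 0 = no effect and 100 = complete control, 13–15 d after treatment in the greenhouse. Compounds added to paddy water held 3 cm above soil surface. Treatment given at 2-leaf stage.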
# [12] = test system: sedge, umbrella (small-flower umbrella sedge, Cyperus difformis); test: Test B flooded paddy test; settings: Flood, 250 g ai/ha; scale of 0 to 100 where 0 is no effect and 100 is complete control
# Procedure, shortened: as §2
# [13] = test system: ducksalad (Heteranthera limosa); test: Test B flooded paddy test; settings: Flood, 250 g ai/ha; 0 to 100 scale where 0 is no effect and 100 is complete control; 13 to 15 d
# Procedure, shortened: as §2
# [14] = test system: barnyardgrass (Echinochloa crus-galli); test: Test B flooded paddy test; settings: Flood, 250 g ai/ha; 0 to 100 scale where 0 is no effect and 100 is complete control; 13 to 15 d
# Procedure, shortened: as §2
# [15] = test system: Kochia (Kochia scoparia); test: Test A preemergence
# Procedure, shortened: as §1
# [16] = test system: ryegrass, Italian (Italian ryegrass, Lolium multiflorum); test: Test A preemergence; settings: preemergence
# Procedure, shortened: as §1
# [17] = test system: giant foxtail (Setaria faberii); test: Test A preemergence
# Procedure, shortened: as §1
# [18] = test system: pigweed (Amaranthus retroflexus); test: Test A preemergence; settings: preemergence
# [19] = test system: barnyardgrass (Echinochloa crus-galli); test: Test A preemergence
# Procedure, shortened: as §1
# [20] = test system: ragweed (common ragweed, Ambrosia elatior); test: Test A preemergence; settings: preemergence
# Procedure, shortened: as §1
# [21] = test system: pigweed (Amaranthus retroflexus); test: Test C preemergence; settings: for Plant response rating (scale of 0 to 100), Pigweed: 0 is no effect, 100 is complete control; for Plant response rating, Pigweed: scale 0 to 100, 0 no effect, 100 complete control
# Procedure, shortened: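 Visual 0 (no effect) to 100 (complete control) ratings versus controls, taken 13–15 d after treatment in the greenhouse; dash means no result. Compounds in a surfactant-containing non-phytotoxic solvent blend were applied preemergence to seeds in loam-sand soil or postemergence to 1- to 4-leaf plants (2–18 cm) in peat-based medium.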
# [22] = 125 g ai/ha, visual injury after approximately 10 d
# [23] = 500 g ai/ha, visual injury, approx. 10 d
# [24] = 125 g ai/ha, visual rating after approx. 10 d
# [25] = 125 g ai/ha, Preemergence, visual injury after approximately 10 d, 0 to 100 scale where 0 is no effect and 100 is complete control
# [26] = 500 g ai/ha, preemergence, 0 to 100 scale, 0 = no effect, 100 = complete control
# [27] = 125 g ai/ha, visual rating after approx. 10 d, 0 to 100 scale where 0 is no effect and 100 is complete control
# [28] = 500 g ai/ha, 0 to 100 scale, 0 = no effect, 100 = complete control
smiles,measurement,setting,value
CN1CC(c2ccc(C(C)(F)F)cc2)C(C(=O)Nc2ccccc2F)C1=O (stereo not shown) [Compound 691],"Plant response rating, Kochia",[1]; [22],70
same,"Plant response rating, Kochia",[1]; [23],80
same,"Plant response rating, Ryegrass, Italian",[2]; [22],50
same,"Plant response rating, Ryegrass, Italian",[2]; [23],60
same,"Plant response rating, Corn",[3]; [22],60
same,"Plant response rating, Corn",[3]; [23],90
same,"Plant response rating, Blackgrass",[4]; [24],50
same,"Plant response rating, Blackgrass",[4]; [23],60
same,"Plant response rating, Foxtail, Giant",[5]; [22],80
same,"Plant response rating, Foxtail, Giant",[5]; [23],80
same,"Plant response rating, Pigweed",[6]; [22],40
same,"Plant response rating, Pigweed",[6]; [23],70
same,"Plant response rating, Galium",[7]; [22],70
same,"Plant response rating, Galium",[7]; [23],70
same,"Plant response rating, Wheat",[8]; [22],50
same,"Plant response rating, Wheat",[8]; [23],60
same,"Plant response rating, Barnyardgrass",[9]; [24],80
same,"Plant response rating, Barnyardgrass",[9]; [23],80
same,"Plant response rating, Ragweed",[10]; [22],50
same,"Plant response rating, Ragweed",[10]; [23],60
same,"Plant response rating, Rice",[11],25
same,"Sedge, Umbrella plant response rating",[12],0
same,"Plant response rating, Ducksalad",[13],95
same,"Plant response rating, Barnyardgrass",[14],70
same,"Plant response rating, Kochia",[15]; [25],80
same,"Plant response rating, Kochia",[15]; [26],90
same,"Plant response rating, Ryegrass, Italian",[16]; [27],50
same,"Plant response rating, Ryegrass, Italian",[16]; [28],60
same,"Plant response rating, Foxtail, Giant",[17]; [25],90
same,"Plant response rating, Foxtail, Giant",[17]; [26],90
same,"Plant response rating, Pigweed",[18]; [27],70
same,"Plant response rating, Pigweed",[18]; [28],80
same,"Plant response rating, Barnyardgrass",[19]; [25],90
same,"Plant response rating, Barnyardgrass",[19]; [26],90
same,"Plant response rating, Ragweed",[20]; [27],60
same,"Plant response rating, Ragweed",[20]; [28],90
same,"Plant response rating (scale of 0 to 100), Pigweed",[21]; 16 g ai/ha,35
same,"Plant response rating (scale of 0 to 100), Pigweed",[21]; 31 g ai/ha,85
same,"Plant response rating, Pigweed",[21]; 62 g ai/ha,90
same,"Plant response rating, Pigweed",[21]; 125 g ai/ha,100
